One substance from patent US20230346827A1 (priority 2020, published 2023) can be followed below.

Test [1] concerns CD19+ B cells and PBMC + (α-IgM and TCR ligands). Briefly: BioMAP BT system. It counts as cell-based, human. As to conditions: annotated relative to vehicle controls. An excerpt: (§1) Cell types and stimuli used in each system are as follows: 3C system [HUVEC + (IL-1β, TNFα and IFNy)], 4H system [HUVEC + (IL-4 and histamine)], LPS system [PBMC and HUVEC + LPS (TLR4 ligand)], SAg system [PBMC and HUVEC + TCR ligands], BT system [CD19+ B cells and PBMC + (α-IgM and TCR ligands)], BF4T system [bronchial epithelial cells and HDFn + (TNFα and IL-4)], BE3C system [bronchial epithelial cells + (IL-1β, TNFα and IFNy)], CASM3C system [coronary artery smooth muscle cells + (IL-1 β, TNFα and IFNy)], HDF3CGF system [HDFn + (IL-1β, TNFα, IFNy, EGF, bFGF and PDGF-BB)], KF3CT system [keratinocytes and HDFn + (IL-1β, TNFα, IFNy and TGFβ)], MyoF system [differentiated lung myofibroblasts + (TNFα and TGFβ)] and Mphg system [HUVEC and M1 macrophages + Zymosan (TLR2 ligand)].
(§2) Systems are derived from either single cell types or co-culture systems. Adherent cell types are cultured in 96 or 384-well plates until confluence, followed by the addition of PBMC (SAg and LPS systems). […] Soluble factors from supernatants are quantified using either HTRF® detection, bead-based multiplex immunoassay or capture ELISA. Overt adverse effects of test agents on cell proliferation and viability (cytotoxicity) are detected by sulforhodamine B (SRB) staining, for adherent cells, and alamarBlue® reduction for cells in suspension. […]

Test [2] has as its system HUVEC and M1 macrophages + Zymosan (TLR2 ligand). Briefly: BioMAP Mphg system. Type of test: cell-based, human. Particulars: annotated relative to vehicle controls.
From the text: as §1, §2

Test [3] concerns Human trabecular meshwork cells. Briefly: Fibronectin immunofluorescence in TGFβ2-stimulated trabecular meshwork cells. Type of test: cell-based. As to conditions: TGFβ2 1.0 ng/ml + LMW-DS 4.0 µM, 72 hours. The method, then: Human trabecular meshwork cells (TMC-6590; ScienCell Research Laboratories, Carlsbad, CA) were cultured in TMC (6591; ScienCell Research Laboratories) complete medium and maintained at 37° C. in 5% CO2 until reaching 80-90% confluency. Cells were plated at densities of 5000-10000 cells per well in Greiner-Bio Cell 96 Well black Cell Culture Microplates (655090, Sigma) and left to adhere overnight. The following day cells were treated with TGFβ2 (1.0 ng/ml; Preprotech) and/or LMW-DS (4.0 µM; Tikomed AB) under serum free conditions for 72 hrs.
After 72 hrs treatments, cells were fixed using 4% PFA in PBS (28908, Thermo Fisher Scientific) for 10 minutes, washed with PBS and then washed with PBS containing saponin-based permeabilization buffer (00-8333-56, Thermo Fisher Scientific). Cells were then immunostained with anti-human Fibronectin Alexa Fluor® 488 (53-9869-82, Thermo Fisher Scientific) and nuclear stain Hoeschst 33342 (H21492, Thermo Fisher Scientific) in permeabilizing buffer in the dark for 1 hr at room temperature. […] Images were analyzed using the Yokogawa image analysis software.

The subject of test [4] is ALS patients. Briefly: Serum lactate in ALS patients, dextran sulfate 2 mg/kg s.c. weekly for ten weeks (Example 14). It counts as in vivo, human. Set-up: serum lactate levels: unit not given here. On the procedure: Dextran sulfate (ILB®, Tikomed AB, Viken, Sweden, WO 2016/076780) was administered at 2 mg/kg by […] subcutaneous injection once a week for ten weeks to 8 human patients suffering from ALS.
Peripheral venous blood samples were collected from patients before (week 0) and after dextran sulfate administration (week 5 and week 10) after at least 15 minutes of complete rest, using the standard tourniquet procedure, from the antecubital vein into a single VACUETTE® polypropylene tube containing serum separator and clot activator (Greiner-Bio One GmbH, Kremsmunster, Austria). After 30 mins at room temperature (20-25° C.), blood withdrawals were centrifuged at 1,890 × g for 10 min to get serum aliquots.
A serum aliquot of 500 µl was supplemented with 1 ml of HPLC-grade acetonitrile, vortexed for 60 secs, centrifuged at the maximum speed in a top-bench centrifuge to precipitate proteins. Supernatants were washed with large volumes of HPLC-grade chloroform to remove organic solvent, centrifuged and the upper aqueous phases were transferred to different tubes, clearly labeled to identify the sample and stored at -80° C. until analyzed to determine different water-soluble compounds.

The subject of test [5] is ALS patients. Briefly: Blood myoglobin, creatine kinase and HGF in ALS patients, dextran sulfate 1 mg/kg s.c. weekly for five weeks (Example 15). Type of test: in vivo, human. Set-up: circulating HGF, peak: unit not given here. On the procedure: A clinical trial in the form of a Phase IIa, single-center, open label, single-arm study where the safety, tolerability and possible efficacy of subcutaneously administered dextran sulfate was evaluated in patients with ALS of intermediate progression rate. The clinical trial was conducted at the Sahlgrenska University Hospital, Gothenburg, Sweden and was overseen and approved by the Ethics Committee of the University of Gothenburg and by the Swedish Medical Products Agency.
Dextran sulfate (Tikomed AB, Viken, Sweden, WO 2016/076780) was administered at 1 mg/kg by […] subcutaneous injection once a week for five weeks to 13 human patients suffering from ALS.
Blood samples were drawn at defined study intervals by a venous catheter into vacutainer tubes. Laboratory analyses of blood plasma were performed immediately after collection by the Clinical Chemistry Laboratory at the Sahlgrenska University Hospital.

For sodium salt of dextran sulfate [LMW-DS], in test [1], the Decreased biomarker activity result was “sIgG, sIL-17F” and the Increased biomarker activity result is given as “sIL-17A”. Moreover, in test [2], the Increased biomarker activity result was “IL-8, CD69”. In test [3], the “fibronectin levels (quantification of fibronectin staining)” value came out at 1136 ± 155. Besides, in test [4] (after 5 weeks of treatment), the “increase of serum lactate levels vs Week 0” value was found to be 29.8% and the serum lactate levels amounted to 2.31±1.02. In test [4] (after 10 weeks of treatment), the “increase of serum lactate levels vs Week 0” value was determined as 70% and the serum lactate levels is 3.02±1.59. Moreover, in test [5] (after 4 weeks of treatment), the “reduction in creatine kinase levels” value is 13.3%, the “serum creatine kinase levels” value is on record as 6.2 ± 5.08 µkat/L and the serum myoglobin levels stood at 103.69 ± 72.16 µg/L. The “reduction in myoglobin levels” value in test [5] (after 4 weeks of treatment vs Day 1) is reported as 30%. For the same substance, the “circulating HGF, peak” value in test [5] (peak at 2.5 hours after injection) turned out to be 37863 ± 14235.
